{"source": "paper PMC10755693", "about": "“Widespread Family of NAD^+-Dependent Sulfoquinovosidases at the Gateway to Sulfoquinovose Catabolism” (Journal of the American Chemical Society, 2023)", "target": "T1, ArSqgA (Arthrobacter sp. U41, UniProt Z9RXK5N058)", "T1 construct": "synthetic gene with codons harmonized for E. coli; homodimer; GH188", "T1 sequence (Z9RXK5N058 14-392)": "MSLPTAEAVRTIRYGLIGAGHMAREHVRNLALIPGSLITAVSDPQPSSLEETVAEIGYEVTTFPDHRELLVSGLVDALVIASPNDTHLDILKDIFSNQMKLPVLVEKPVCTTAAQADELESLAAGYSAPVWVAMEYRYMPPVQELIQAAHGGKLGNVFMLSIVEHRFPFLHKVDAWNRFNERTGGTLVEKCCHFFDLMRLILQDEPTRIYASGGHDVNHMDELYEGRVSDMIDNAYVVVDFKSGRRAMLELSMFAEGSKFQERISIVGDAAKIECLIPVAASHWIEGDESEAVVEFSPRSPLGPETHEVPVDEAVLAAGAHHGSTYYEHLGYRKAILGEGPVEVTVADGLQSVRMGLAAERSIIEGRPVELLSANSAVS", "assay": "X-ray crystal structure, […] Å", "assay_type": "binding", "conditions": "Rossmann domain cleft; binary complex"}
{"molecule": "NC(=O)c1ccc[n+]([C@@H]2O[C@H](COP(=O)(O)OP(=O)(O)OC[C@H]3O[C@@H](n4cnc5c(N)ncnc54)[C@H](O)[C@@H]3O)[C@@H](O)[C@H]2O)c1", "note": "[NAD^+]", "values": [{"measurement": "X-ray crystal structure, 2.65 Å", "value": "modeling of a single molecule of NAD^+ bound in an extended conformation in each monomer"}]}
